# Reference: patent EP1724268A1, “COMPOUND HAVING TGF-BETA INHIBITORY ACTIVITY AND PHARMACEUTICAL COMPOSITION CONTAINING SAME” (KIRIN BEER KABUSHIKI KAISHA, priority 2004, dated 2005)
# Where two headings read alike, the source gives them in different places.
# Tested on: TGFβ signal
# Test: TGFβ signal inhibitory activity, (SBE)4-Luc reporter in A549 cells (Test Examples 1A and 1B)
# Type: cell-based, human
# Conditions: Homo sapiens, A549, read-out: TGFβ inhibition rate, %
# Method in brief: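 Stable A549 line carrying (SBE)4-Luc Smad3-binding reporter treated with compound plus TGFβ-1 (2 ng/ml) for 4 hr; luciferase read by chemiluminescence. Percent inhibition relative to TGFβ-only and untreated cells, tested at 3 µM and 10 µM, some also at 1 µM.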
# [1] = test compound 3 µM, Reference Examples, Table 1B
# [2] = test compound 10 µM, Reference Examples, Table 1B
# [3] = test compound 3 µM, TGFβ-1 2 ng/ml, 4 hr, Table 1A
# [4] = test compound 10 µM, TGFβ-1 2 ng/ml, 4 hr, Table 1A
# [5] = 3 µM, compounds of Reference Examples (Test Example 1B)
# [6] = 10 µM, compounds of Reference Examples (Test Example 1B)
SMILES,inhibition at 3 µM [3] [%],inhibition at 3 µM [5] [%],inhibition at 10 µM [6] [%],also measured
COc1cc2c(Oc3ccc(C)cc3C(=O)c3ccccc3)ccnc2cc1OCC(O)CN1CCC(CO)CC1 (stereo not shown) [r154],,,,inhibition at 3 µM [1]: 99%; inhibition at 10 µM [2]: 100%
"Cc1cc(Oc2ncnc3ccccc23)c(-c2ccccn2)nc1C [Compound 23, 4-(5,6-Dimethyl-[2,2']bipyridinyl-3-yloxy)-quinazoline]",78,,,inhibition at 10 µM [4]: 98%
"COc1cc2nccc(Oc3cc4cccnc4nc3C)c2cc1F [Compound 160, 3-(6-Fluoro-7-methoxy-quinolin-4-yloxy)-2-methyl-[1,8]naphthyridine]",56,,,inhibition at 10 µM [4]: 87%
CCCCC(O)c1cc(C)ccc1Oc1ccnc2cc(OC)c(OC)cc12 (stereo not shown) [r10],,,,inhibition at 3 µM [1]: 38%; inhibition at 10 µM [2]: 87%
COc1cc2nccc(Oc3ccc(C)nc3-c3ccccc3OC)c2cc1OC [Compound r227],,50,87,
COc1cc2nccc(Oc3ccc(C)nc3-c3cccc(C)n3)c2cc1OC [Compound r264],,88,100,
"COC(=O)c1cc2c(Oc3cc4cccnc4nc3-c3ccccc3)ccnc2cc1OC [Compound 63, Methyl 7-methoxy-4-(2-phenyl-[1,8]naphthyridin-3-yloxy)-quinoline-6-carboxylate]",99,,,inhibition at 10 µM [4]: 100%
COc1cc2c(Oc3ccc(C)cc3C(=O)c3ccccc3)ccnc2cc1OCCCN1CCOCC1 [r139],,,,inhibition at 3 µM [1]: 99%; inhibition at 10 µM [2]: 100%
CCC(=O)c1cc(I)ccc1Oc1ccnc2cc(OC)c(OC)cc12 [Compound r47],,,,inhibition at 3 µM [1]: 45%; inhibition at 10 µM [2]: 98%
"COc1cc2nccc(Oc3cc4cccnc4nc3-c3ccccc3)c2cc1C(N)=O [Compound 66, 7-Methoxy-4-(2-phenyl-[1,8]naphthyridin-3-yloxy)-quinoline-6-carboxylic acid amide]",100,,,"inhibition at 1 µM (test compound 1 µM, TGFβ-1 2 ng/ml, 4 hr, Table 1A): 97%"
"Cc1cc(Oc2ccnc3cc(-c4ccccc4)ccc23)c(-c2ccccn2)nc1C [Compound 17, 5,6-Dimethyl-3-(7-phenyl-quinolin-4-yloxy)-[2,2']bipyridine]",98,,,inhibition at 10 µM [4]: 100%
CCCCCCCCOc1ccc(C(=O)c2ccccc2)c(Oc2ccnc3cc(OC)c(OC)cc23)c1 [Compound r66],,,,inhibition at 3 µM [1]: 22%; inhibition at 10 µM [2]: 86%
COc1cc2nccc(Oc3ccc(C)nc3-c3cn[nH]c3)c2cc1OC [r434],,100,100,
COc1cc2nccc(Oc3ccnc4ccsc34)c2cc1OC [Compound r307],,26,69,
CCc1nc2ccncc2cc1Oc1ccnc2cc(OC)c(OC)cc12 [r424],,28,79,
CCCOC(=O)c1cc2ccccc2cc1Oc1ccnc2cc(OCCN3CCOCC3)c(OC)cc12 [Compound r323],,89,100,
"COc1cc2c(Oc3cc4ccccc4nc3C)ccnc2cc1NCCN1CCOCC1 [Compound r410, [6-Methoxy-4-(2-methyl-quinolin-3-yloxy)-quinolin-7-yl]-(2-morpholin-4-yl-ethyl)-amine]",,91,100,
CCN(CC)CC(O)COc1cc2nccc(Oc3ccc(C)cc3C(=O)c3ccccc3)c2cc1OC (stereo not shown) [r153],,,,inhibition at 3 µM [1]: 100%; inhibition at 10 µM [2]: 100%
"COc1cc2nccc(Oc3cc4cccnc4nc3-c3ccc(F)cc3)c2cc1OC [Compound 83, 3-(6,7-Dimethoxy-quinolin-4-yloxy)-2-(4-fluoro-phenyl)-[1,8]naphthyridine]",92,,,inhibition at 10 µM [4]: 99%
COc1cc2c(Oc3cc(C)c(C)nc3-c3ccccn3)ccnc2cc1OCCO [Compound r339],,100,,
COc1cc2c(Oc3cc(C)c(C)nc3-c3ccccn3)ccnc2cc1OCC1CO1 (stereo not shown) [Compound r341],,99,,
COc1cc2c(Oc3cc(C)c(C)nc3-c3cccnc3)ccnc2cc1OCCCO [Compound r347],,100,,
CCC(=O)c1cc(OC)ccc1Oc1ccnc2cc(OC)c(OC)cc12 [Compound r50],,,,inhibition at 3 µM [1]: 100%; inhibition at 10 µM [2]: 100%
"COc1ccc2nccc(Oc3cc4cccnc4nc3-c3ccccc3)c2c1 [Compound 55, 3-(6-Methoxy-quinolin-4-yloxy)-2-phenyl-[1,8]naphthyridine]",94,,,inhibition at 10 µM [4]: 100%
COc1cc2nccc(Oc3cc(C)c(C)nc3-c3ccc(O)nc3)c2cc1OC [Compound r430],,19,78,
"COc1cc2nccc(Oc3cc4cnccc4nc3-c3cccnc3)c2cc1OC [Compound 95, 3-(6,7-Dimethoxy-quinolin-4-yloxy)-2-pyridin-3-yl-[1,6]naphthyridine]",40,,,inhibition at 10 µM [4]: 85%
